The results in this text go back to patent US11926614B2, “1,2,4-triazole derivatives as tankyrase inhibitors” (priority 2018, dated 2024).

For experiment [1], the target named is TNKS2 (Homo sapiens (Human), UniProt Q9H2K2). Put plainly: Biochemical IC50 TNKS2. The note with it: read-out: Biochemical IC50 TNKS2. From the text:
(§1) XLfit (idbs) was used to determine the IC50-values in inhibition experiments. The following formula was chosen to fit the data points (Langmuir Binding Isotherm): fit=((A+(B*x))+4(C−B)*(1−exp((−1*D)*x)))/D)), res=(y−fit)

For experiment [2], the system named is HEK293. As to the kind of experiment: Cellular IC50 HEK293. It is filed as cell-based.
Description: as §1

Where [3] appears, read: Homo sapiens, HEK293; read-out: Cellular IC50 HEK293.
Setting [4] is: Homo sapiens, HEK293, HEK293; read-out: Cellular IC50 HEK293.
Setting [5] is: Homo sapiens, HEK293, read-out: Cellular IC50 HEK293.

Like-named read-outs stand apart in the source and are kept apart here.

TNKS2, sequence (Q9H2K2 whole entry): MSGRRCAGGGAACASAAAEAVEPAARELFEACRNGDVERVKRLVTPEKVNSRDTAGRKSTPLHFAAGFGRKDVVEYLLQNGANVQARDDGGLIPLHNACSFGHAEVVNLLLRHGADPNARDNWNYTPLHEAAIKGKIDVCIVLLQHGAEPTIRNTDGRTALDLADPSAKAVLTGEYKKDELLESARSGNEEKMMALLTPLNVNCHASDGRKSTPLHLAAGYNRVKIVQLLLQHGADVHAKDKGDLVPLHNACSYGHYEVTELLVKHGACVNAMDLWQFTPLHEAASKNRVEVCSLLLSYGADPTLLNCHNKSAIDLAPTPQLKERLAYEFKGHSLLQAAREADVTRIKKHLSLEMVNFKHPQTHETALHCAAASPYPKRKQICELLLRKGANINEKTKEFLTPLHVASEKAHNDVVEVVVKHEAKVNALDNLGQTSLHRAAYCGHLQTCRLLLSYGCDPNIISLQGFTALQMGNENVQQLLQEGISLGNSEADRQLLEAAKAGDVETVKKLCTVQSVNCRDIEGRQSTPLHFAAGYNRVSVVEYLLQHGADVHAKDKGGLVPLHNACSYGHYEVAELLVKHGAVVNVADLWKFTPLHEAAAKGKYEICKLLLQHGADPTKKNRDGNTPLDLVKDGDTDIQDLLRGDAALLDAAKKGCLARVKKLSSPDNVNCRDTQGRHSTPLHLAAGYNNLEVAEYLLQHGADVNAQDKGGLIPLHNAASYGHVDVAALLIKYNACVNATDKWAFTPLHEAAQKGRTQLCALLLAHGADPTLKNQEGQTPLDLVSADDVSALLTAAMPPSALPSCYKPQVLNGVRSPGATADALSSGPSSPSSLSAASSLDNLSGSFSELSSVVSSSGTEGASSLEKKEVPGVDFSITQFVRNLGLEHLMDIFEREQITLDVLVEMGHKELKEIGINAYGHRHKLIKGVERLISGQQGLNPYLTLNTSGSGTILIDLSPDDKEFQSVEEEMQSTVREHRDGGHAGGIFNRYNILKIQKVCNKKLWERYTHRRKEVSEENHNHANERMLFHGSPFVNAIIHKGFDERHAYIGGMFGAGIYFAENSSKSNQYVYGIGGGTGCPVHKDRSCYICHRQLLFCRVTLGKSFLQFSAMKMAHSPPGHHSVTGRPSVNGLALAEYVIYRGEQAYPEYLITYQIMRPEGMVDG

Turning to `CCOc1ccc(-c2nnc(C34CC(NC(=O)c5ccnc6cccnc56)(C3)C4)n2-c2cccnc2)nc1` [Example 166, N-(3-(5-(5-ethoxypyridin-2-yl)-4-(pyridin-3-yl)-4H-1,2,4-triazol-3-yl)bicyclo[1.1.1]pentan-1-yl)-1,5-naphthyridine-4-carboxamide], the IC50 in experiment [1] turned out to be 9.6 nM; in experiment [2] (setting [3]), 30 nM.
In the case of `CCOc1ccc(-c2nnc(C34CC(NC(=O)c5ccnc6cccnc56)(C3)C4)n2-c2ccccc2)nc1` [Example 64, N-(3-(5-(5-ethoxypyridin-2-yl)-4-phenyl-4H-1,2,4-triazol-3-yl)bicyclo[1.1.1]pentan-1-yl)-1,5-naphthyridine-4-carboxamide], the results for the IC50 in experiment [1] and in experiment [2] (setting [4]) were 1.4 nM and 3 nM, respectively.
In the case of `CCOc1ccc(-c2nnc([C@H]3C[C@H](NC(=O)c4cccc5cccnc45)C3)n2-c2ccc(C)s2)nc1` [Example 83, N-((1r,3r)-3-(5-(5-ethoxypyridin-2-yl)-4-(5-methylthiophen-2-yl)-4H-1,2,4-triazol-3-yl)cyclobutyl)quinoline-8-carboxamide], the IC50 worked out at 2.4 nM in experiment [1] and 1 nM in experiment [2] (setting [5]).
Regarding `CCOc1ccc(-c2nnc([C@H]3C[C@H](NC(=O)c4cccc(C#N)n4)C3)n2-c2ccccc2F)nc1` [Example 53, 6-cyano-N-((1S,3r)-3-(5-(5-ethoxypyridin-2-yl)-4-(2-fluorophenyl)-4H-1,2,4-triazol-3-yl)cyclobutyl)picolinamide], the figures for the IC50 in experiment [1] and in experiment [2] (setting [4]) were 3.7 nM and 13 nM, respectively.
Regarding `CCOc1ccc(-c2nnc([C@H]3C[C@H](NC(=O)c4ccccn4)C3)n2-c2ccc(C)s2)nc1` [Example 81, N-((1r,3r)-3-(5-(5-ethoxypyridin-2-yl)-4-(5-methylthiophen-2-yl)-4H-1,2,4-triazol-3-yl)cyclobutyl)picolinamide], the IC50 in experiment [1] is 4.6 nM; in experiment [2] (setting [5]) it was 37 nM.
Take `CCOc1ccc(-c2nnc([C@H]3C[C@H](NC(=O)c4ccc5ncccc5n4)C3)n2-c2ccncc2)nc1` [Example 169, N-((1r,3r)-3-(5-(5-ethoxypyridin-2-yl)-4-(pyridin-4-yl)-4H-1,2,4-triazol-3-yl)cyclobutyl)-1,5-naphthyridine-2-carboxamide]: the IC50 in experiment [1] is 28 nM; in experiment [2] (setting [4]) it was 58 nM.
With `O=C(NC12CC(c3nnc(-c4ccncn4)n3-c3ccccc3Cl)(C1)C2)c1ccccn1` [Example 22, N-(3-(4-(2-chlorophenyl)-5-(pyrimidin-4-yl)-4H-1,2,4-triazol-3-yl)bicyclo[1.1.1]pentan-1-yl)picolinamide], the IC50 in experiment [1] was 3.8 nM; in experiment [2] (setting [4]), 25 nM.
As to `CCOc1ccc(C(=O)N[C@H]2C[C@H](c3nnc(-c4ccncn4)n3-c3ccccc3Cl)C2)nc1` [Example 130, N-((1R,3r)-3-(4-(2-chlorophenyl)-5-(pyrimidin-4-yl)-4H-1,2,4-triazol-3-yl)cyclobutyl)-5-ethoxypicolinamide], the results for the IC50 in experiment [1] and in experiment [2] (setting [4]) were 4.8 nM and 1.4 nM, respectively.
For the molecule `CCOc1ccc(-c2nnc([C@H]3C[C@H](NC(=O)c4ccnc5cccnc45)C3)n2-c2cccnc2)nc1` [Example 162, N-((1r,3r)-3-(5-(5-ethoxypyridin-2-yl)-4-(pyridin-3-yl)-4H-1,2,4-triazol-3-yl)cyclobutyl)-1,5-naphthyridine-4-carboxamide], the IC50 in experiment [1] worked out at 4.5 nM; in experiment [2] (setting [5]), 16 nM.
`O=C(N[C@H]1C[C@H](c2nnc(-c3ccncn3)n2-c2ccccc2Cl)C1)c1ccccc1F` [Example 13, N-((1S,3r)-3-(4-(2-chlorophenyl)-5-(pyrimidin-4-yl)-4H-1,2,4-triazol-3-yl)cyclobutyl)-2-fluorobenzamide]: the values for the IC50 in experiment [1] and in experiment [2] (setting [4]) were 6.4 nM and 30 nM, respectively.
With `CCOc1ccc(-c2nnc([C@H]3C[C@H](NC(=O)c4ccnc5cc(F)cnc45)C3)n2-c2ccc(C)s2)nc1` [Example 84, N-((1r,3r)-3-(5-(5-ethoxypyridin-2-yl)-4-(5-methylthiophen-2-yl)-4H-1,2,4-triazol-3-yl)cyclobutyl)-7-fluoro-1,5-naphthyridine-4-carboxamide], the IC50 was found to be 1.6 nM in experiment [1] and 1 nM in experiment [2] (setting [5]).
With `CCOc1ccc(-c2nnc(C34CC(NC(=O)c5ccnc6cc(F)cnc56)(C3)C4)n2-c2ccccc2)nc1` [Example 65, N-(3-(5-(5-ethoxypyridin-2-yl)-4-phenyl-4H-1,2,4-triazol-3-yl)bicyclo[1.1.1]pentan-1-yl)-7-fluoro-1,5-naphthyridine-4-carboxamide], the values for the IC50 in experiment [1] and in experiment [2] (setting [4]) were 1.4 nM and 10 nM, respectively.
Regarding `O=C(N[C@H]1C[C@H](c2nnc(-c3nccs3)n2-c2ccccc2Cl)C1)c1ccccn1` [Example 42, N-((1S,3r)-3-(4-(2-chlorophenyl)-5-(thiazol-2-yl)-4H-1,2,4-triazol-3-yl)cyclobutyl)picolinamide], the IC50 in experiment [1] was determined as 5.9 nM; in experiment [2] (setting [4]), 20 nM.
For `CCOc1ccc(-c2nnc([C@H]3C[C@H](NC(=O)c4cccc(C(C)(C)O)n4)C3)n2-c2ccccc2F)nc1` [Example 129, N-((1S,3r)-3-(5-(5-ethoxypyridin-2-yl)-4-(2-fluorophenyl)-4H-1,2,4-triazol-3-yl)cyclobutyl)-6-(2-hydroxypropan-2-yl) picolinamide], the IC50 in experiment [1] is 210 nM; in experiment [2] (setting [4]), 649 nM.
Turning to `CCOc1ccc(-c2nnc([C@H]3C[C@H](NC(=O)c4ccnc5cccnc45)C3)n2-c2ccccn2)nc1` [Example 124, N-((1r,3r)-3-(5-(5-ethoxypridin-2-yl)-4-(pyridin-2-yl)-4H-1,2,4-triazol-3-yl)cyclobutyl)-1,5-naphthyridine-4-carboxamide], the IC50 stood at 5.8 nM in experiment [1] and 36 nM in experiment [2] (setting [5]).
As for `CCOc1ccc(-c2nnc([C@H]3C[C@H](NC(=O)c4nc5ccccc5[nH]4)C3)n2-c2ccc(C)s2)nc1` [Example 143, N-((1r,3r)-3-(5-(5-ethoxypyridin-2-yl)-4-(5-methylthiophen-2-yl)-4H-1,2,4-triazol-3-yl)cyclobutyl)-1H-benzo[d]imidazole-2-carboxamide], the IC50 in experiment [1] stood at 11 nM; in experiment [2] (setting [4]), 94 nM.
In the case of `CCOc1ccc(-c2nnc([C@H]3C[C@H](NC(=O)c4ccnc5cccnc45)C3)n2-c2ccc(Cl)s2)nc1` [Example 76, N-((1r,3r)-3-(4-(5-chlorothiophen-2-yl)-5-(5-ethoxypyridin-2-yl)-4H-1,2,4-triazol-3-yl)cyclobutyl)-1,5-naphthyridine-4-carboxamide], the values for the IC50 in experiment [1] and in experiment [2] (setting [4]) were 2 nM and 1.1 nM, respectively.
Turning to `CCOc1ccc(-c2nnc(C34CC(NC(=O)c5ccnc6cccnc56)(C3)C4)n2-c2ccncc2)nc1` [Example 172, N-(3-(5-(5-ethoxypyridin-2-yl)-4-(pyridin-4-yl)-4H-1,2,4-triazol-3-yl)bicyclo[1.1.1]pentan-1-yl)-1,5-naphthyridine-4-carboxamide], the IC50 in experiment [1] amounted to 9.4 nM; in experiment [2] (setting [3]), 43 nM.
`CCOc1ccc(-c2nnc([C@H]3C[C@H](NC(=O)c4cc5ccncc5[nH]4)C3)n2-c2ccccc2F)nc1` [Example 126, N-((1S,3r)-3-(5-(5-ethoxypyridin-2-yl)-4-(2-fluorophenyl)-4H-1,2,4-triazol-3-yl)cyclobutyl)-1H-pyrrolo[2,3-c]pyridine-2-carboxamide]: the IC50 in experiment [1] is 4.1 nM; in experiment [2] (setting [4]), 27 nM.
The like results for `O=C(N[C@H]1C[C@H](c2nnc(-c3ccncn3)n2-c2ccccc2Cl)C1)c1cccc2cccnc12` [Example 4, N-((1S,3r)-3-(4-(2-chlorophenyl)-5-(pyrimidin-4-yl)-4H-1,2,4-triazol-3-yl)cyclobutyl)quinoline-8-carboxamide] were, in that order, 5.4 nM and 1 nM.
In the case of `O=C(N[C@H]1C[C@H](c2nnc(-c3nccs3)n2-c2ccccc2Cl)C1)c1ccnc2cccnc12` [Example 41, N-((1S,3r)-3-(4-(2-chlorophenyl)-5-(thiazol-2-yl)-4H-1,2,4-triazol-3-yl)cyclobutyl)-1,5-naphthyridine-4-carboxamide], the IC50 in experiment [1] amounted to 2 nM; in experiment [2] (setting [4]), 0.65 nM.
Take `O=C(N[C@H]1C[C@H](c2nnc(-c3ccncn3)n2-c2ccccc2Cl)C1)c1ccncc1` [Example 8, N-((1S,3r)-3-(4-(2-chlorophenyl)-5-(pyrimidin-4-yl)-4H-1,2,4-triazol-3-yl)cyclobutyl)isonicotinamide]: the IC50 in experiment [1] was found to be 57 nM; in experiment [2] (setting [4]), 70 nM.
Regarding `CCOc1ccc(-c2nnc([C@H]3C[C@H](NC(=O)c4ccccn4)C3)n2-c2ccccc2)nc1` [Example 68, N-((1r,3r)-3-(5-(5-ethoxypyridin-2-yl)-4-phenyl-4H-1,2,4-triazol-3-yl)cyclobutyl)picolinamide], the IC50 came out at 5.2 nM in experiment [1] and 65 nM in experiment [2] (setting [5]).
Regarding `O=C(N[C@H]1C[C@H](c2nnc(-c3nccs3)n2-c2ccccc2)C1)c1ccccc1` [Example 34, N-((1r,3r)-3-(4-phenyl-5-(thiazol-2-yl)-4H-1,2,4-triazol-3-yl)cyclobutyl)benzamide], the IC50 in experiment [1] is 290 nM; in experiment [2] (setting [4]), 921 nM.
In the case of `Cc1ccc(-n2c(-c3nccs3)nnc2[C@H]2C[C@H](NC(=O)c3ccccn3)C2)s1` [Example 88, N-((1r,3r)-3-(4-(5-methylthiophen-2-yl)-5-(thiazol-2-yl)-4H-1,2,4-triazol-3-yl)cyclobutyl)picolinamide], the IC50 in experiment [1] was 47 nM; in experiment [2] (setting [4]) it was 93 nM.
Turning to `CCOc1ccc(-c2nnc([C@H]3C[C@H](NC(=O)c4ccc(F)cn4)C3)n2-c2ccccc2F)nc1` [Example 59, N-((1S,3r)-3-(5-(5-ethoxypyridin-2-yl)-4-(2-fluorophenyl)-4H-1,2,4-triazol-3-yl)cyclobutyl)-5-fluoropicolinamide], the IC50 was determined as 2.4 nM in experiment [1] and 9.5 nM in experiment [2] (setting [4]).

The IC50 is the concentration that gives 50% inhibition.
